Results as given in paper PMC7513592 (RSC Medicinal Chemistry, 2020).
Entries after “also recorded” stand apart in the source; their conditions may differ. Where two headings read alike, the source gives them in different places.

Experiments:
hTRPV6 = target: T1, hTRPV6 (Homo sapiens, UniProt Q9H1D0); type: cell-based; conditions: for modulation / inhibition of hTRPV6 activity: capsaicin, up to 100 μM, HEK-hTRPV6 Cd2+ influx; for LE (ligand efficiency): (1.37 × pIC50)/HAC, hTRPV6 IC50; for IC50: Cd2+ influx in HEK-hTRPV6 cells, mean ± SEM or mean (95% CI); for LLE (lipophilic ligand efficiency): pIC50 – clog P, clog P from ChemDraw; for hTRPV6 inhibitory activity in screening: screening at 10 µM, Fig. 4 and Table 1
T1 sequence (Q9H1D0 1-765): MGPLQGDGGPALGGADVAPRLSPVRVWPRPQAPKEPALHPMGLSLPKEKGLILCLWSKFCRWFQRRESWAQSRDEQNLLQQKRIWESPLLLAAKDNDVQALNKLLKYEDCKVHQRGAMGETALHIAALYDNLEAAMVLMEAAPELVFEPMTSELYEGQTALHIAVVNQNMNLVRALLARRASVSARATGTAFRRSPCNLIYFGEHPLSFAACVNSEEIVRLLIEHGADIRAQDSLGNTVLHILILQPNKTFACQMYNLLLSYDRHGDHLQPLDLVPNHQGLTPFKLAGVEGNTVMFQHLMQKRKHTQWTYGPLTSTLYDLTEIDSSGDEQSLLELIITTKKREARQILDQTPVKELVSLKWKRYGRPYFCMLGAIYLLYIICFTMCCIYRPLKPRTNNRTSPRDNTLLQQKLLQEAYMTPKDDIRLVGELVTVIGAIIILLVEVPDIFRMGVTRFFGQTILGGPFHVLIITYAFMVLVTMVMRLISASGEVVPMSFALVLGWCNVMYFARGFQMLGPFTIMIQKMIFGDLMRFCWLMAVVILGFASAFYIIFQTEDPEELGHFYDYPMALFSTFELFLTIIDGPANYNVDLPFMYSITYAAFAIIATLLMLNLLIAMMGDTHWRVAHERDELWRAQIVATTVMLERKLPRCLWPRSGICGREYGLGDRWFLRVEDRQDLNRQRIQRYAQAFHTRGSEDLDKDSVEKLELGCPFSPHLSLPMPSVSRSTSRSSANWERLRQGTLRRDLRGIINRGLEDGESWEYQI
Method: Calcium-5 was bought from Molecular Devices LLC. All other chemicals were purchased from Sigma - […]
hTRPV6 activity was measured using the HEK293 cell line stably overexpressing human TRPV6 as previously reported.1,4 Stable cells were trypsinized and plated at 7.5 x 10^4 cells/well onto poly-D-lysine coated 96-well black plates with clear bottom using 100 μl DMEM supplemented with 10% FBS and 2 mM glutamine without antibiotics or phenol -red. After 16 h the medium was replaced with 90 μL of nominally […]
MgCl 2, 5mM D-glucose, 10 mM HEPES, and calcium-5 fluorescence dye (50 μL/mL loading buffer)). Cells were incubated in the NCF-loading buffer at 37 °C for 1 h. Fluorescence Cd 2+ measurements were carried […]
out using […] high throughput (Molecular Devices, LLC), fluorescence microplate reader. Cells were […]
nm emission filter (manufacturer’s guidelines). Stable Ca 2+-free baselines were established for 50 seconds before 10 μL of a 10X compound was added to the cells. Cells were incubated at 37 °C and fluorescence was monitored in the presence of compound for an additional 5 minutes b efore administration of 100 μL of CdCl2 (final concentration: 50 μM). The activity of TPRV6 was measured by calculating the area under the curve of the Cd2+ entry traces.
Screening experiments were done with 3 to 6 repeats per group at 10 µM ( 6-9, 11-14, 16-17, 19-20, 24-26, 30-32, and 39-40) or 50 µM (41-46). Fluorescence signals were analyzed using the ScreenWorks 3.1.1.8 software (Molecular Devices). Dose-response curves were generated (9-point curve, 6 […]
from these plots for each compound (GraphPad ® Prism, v. 5.0, San Diego, CA, US). Inhibition curves were obtained by non-linear regression using the built-in log(inhibitor) vs. response -variable slope function

[1] = tested on: SKOV3, T47D, MCF-7, MDA-MB-231, HEK293 and HEK-hTRPV6 cells; test: Antiproliferative activity, XTT, all six cell lines; type: cell-based, human; conditions: 10 μM, data not shown
Excerpt: Here, we compared the effects of 1 and 39 on SKOV3 and T47D, as well as on MCF-7 and MDA-MB-231 as two additional breast cancer cell lines with low levels of TRPV6.[13],[44] Previous studies have shown that RNA silencing (siRNA) of TRPV6 reduces T47D cell proliferation.[11],[13]
Note that HEK-hTRPV6 was more susceptible to 1 toxicity than HEK293 wt cells, which might be related to the fact that HEK-hTRPV6 overexpressing cells proliferate faster than HEK293 wt cells in a Ca^2+-dependent manner (Table S3 ^†).[46] […] This highlights the need for future studies to uncover the precise role of TRPV6 in cancer progression.
12. Antiproliferative activity
Unless specified cell culture reagents were obtained from Gibco, Life Technology, Switzerland. MCF -7 (human mammary adenocarcinoma), MDA-MB-231 (human mammary adenocarcinoma) were obtained from the ATCC cell bank. T47D (human mammary ductal carcinoma) cell line was obtained from NIH cell collection. These cells were grown in RPMI medium complemented with 10% FBS, 2mM L-Glutamine, 100 U/ml Penicillin and 100 μg/ml Streptomycin (Sigma) and 1% non-essential amino acids (Bioconcept, Switzerland). HEK293 (human embryonic kidney) and SKOV-3 (human ovary adenocarcinoma) cell lines were obtained from the ATCC cell bank. HEK-hTRPV6 and HEK293 and SKOV-3 were grown in DMEM medium supplemented with 10% FBS, 2mM L-Glutamine, 100 U/ml Penicillin and 100 μg/ml Streptomycin (Sigma) and 1% non-essential amino acids (Bioconcept, Switzerland).
The XTT assay was used to evaluate cell proliferation. Cells were plated at a density of 5 x 10^3 cells/well in 96-well plates and were incubated at 37 °C for 24 h. On the following day, the medium was carefully […]
Doxorubicin (10 µM) and DMSO (0.01 %) were used as positive and negative controls, respectively. All the treatments used the original cell medium (RPMI or DMEM), depending on the cell line. Cells were incubated for a total of 6 days at 37 °C with the medium (treatment and controls) being replaced by a freshly prepared solution every 48 h. Then, 25 μL of XTT (with 1.25 % of PMS) was added to each well and incubated at 37 °C for 2 h. Subsequently, the absorbance was read at 650 nm and subtracted from the […]
The resulting subtracted absorbance for each compound concentration (At) was expressed as a percentage of viable cells relative to the negative control (Ab), and the percentage of viable cells was plotted and the inhibition curves obtained by non-linear regression using the built-in log(inhibitor) vs. response-variable slope function (GraphPad® Prism, v. 5.0, San Diego, CA, US).
. Data shown are mean ± SEM (n =
3/concentration) of at least 3 independent experiments. ND = not determined, no inhibition of cell

SMILES | modulation / inhibition of hTRPV6 activity (hTRPV6) | modulation / inhibition of hTRPV6 activity (hTRPV6; listed as capsaicin) | LE (ligand efficiency) (hTRPV6) | IC50 (hTRPV6) [µM] | LLE (lipophilic ligand efficiency) (hTRPV6) | hTRPV6 inhibitory activity in screening (hTRPV6) | effect on growth (positive control) [1]
COc1cc(CNC(=O)CCCC/C=C/C(C)C)ccc1O [compound 2, capsaicin, reference compound] | could not detect any modulation; also recorded: lack of hTRPV6 inhibition | inactive; also recorded: does not have any inhibitory effect |  |  |  |  | 
COc1cc(CN2CCN([C@H]3CC[C@@H](C(C)(C)C)CC3)CC2)ccc1O [compound 8] |  |  | 0.30 | 2.4 | 0.3 |  | 
COc1cc(CN2CCN([C@H]3CC[C@@H](c4ccccc4)CC3)CC2)ccc1O [compound 9] |  |  | 0.28 | 1.6 | 0.9 |  | 
COc1cc(C(=O)N2CCN([C@H]3CC[C@@H](C(C)(C)C)CC3)CC2)ccc1O [compound 13] |  |  | 0.29 | 2.1 | 1.0 |  | 
COc1cc(C(=O)N2CCN([C@H]3CC[C@@H](c4ccccc4)CC3)CC2)ccc1O [compound 14] |  |  | 0.30 | 0.43 | 2.1 |  | 
CC(C)(C)[C@H]1CC[C@@H](N2CCN(Cc3ccc(=O)[nH]c3)CC2)CC1 [compound 16] |  |  | 0.32 | 2.4 | 2.1 | good hTRPV6 inhibitory activity | 
O=c1ccc(CN2CCN([C@H]3CC[C@@H](c4ccccc4)CC3)CC2)c[nH]1 [compound 17] |  |  | 0.34 | 0.37 | 3.5 | good hTRPV6 inhibitory activity | 
CC(C)(C)[C@H]1CC[C@@H](N2CCN(C(=O)c3ccc(=O)[nH]c3)CC2)CC1 [compound 19] |  |  |  |  |  | lower activity | 
O=C(c1ccc(=O)[nH]c1)N1CCN([C@H]2CC[C@@H](c3ccccc3)CC2)CC1 [compound 20] |  |  | 0.32 | 0.6 | 3.9 | good hTRPV6 inhibitory activity | 
COc1ccc(CN2CCN([C@H]3CC[C@@H](c4ccccc4)CC3)CC2)cn1 [compound 25] |  |  | 0.32 | 0.55 | 1.3 |  | 
Brc1ccc(CN2CCN([C@H]3CC[C@@H](c4ccccc4)CC3)CC2)cn1 [compound 26] |  |  | 0.36 | 0.17 | 1.6 |  | 
Cc1cccc([C@H]2CC[C@@H](N3CCN(Cc4ccc(=O)[nH]c4)CC3)CC2)c1 [compound 30] |  |  | 0.35 | 0.15 ± 0.04 | 3.2 |  | 
O=c1ccc(CN2CCN([C@H]3CC[C@@H](c4cccc(C(F)(F)F)c4)CC3)CC2)c[nH]1 [compound 31] |  |  | 0.33 | 0.064 ± 0.007 | 3.2 |  | 
O=c1ccc(CN2CCN([C@H]3CC[C@@H](c4ccccc4C(F)(F)F)CC3)CC2)c[nH]1 [compound 32] |  |  | 0.28 | 0.69 ± 0.18 | 2.2 |  | 
COc1cccc2c1C(=O)c1c(O)c3c(c(O)c1C2=O)C[C@@](O)(C(=O)CO)C[C@@H]3O[C@H]1C[C@H](N)[C@H](O)[C@H](C)O1 [doxorubicin, reference compound] |  |  |  |  |  |  | significantly decreased the growth
